{"source": "ChEMBL document CHEMBL5108056", "about": "“Discovery of Isoform-Selective Akt3 Degraders Overcoming Osimertinib-Induced Resistance in Non-Small Cell Lung Cancer Cells” (J Med Chem, 2022)", "key": {"[1]": {"molecular_target": "RAC-alpha serine/threonine-protein kinase (Homo sapiens, UniProt P31749)", "sequence (P31749 whole entry)": "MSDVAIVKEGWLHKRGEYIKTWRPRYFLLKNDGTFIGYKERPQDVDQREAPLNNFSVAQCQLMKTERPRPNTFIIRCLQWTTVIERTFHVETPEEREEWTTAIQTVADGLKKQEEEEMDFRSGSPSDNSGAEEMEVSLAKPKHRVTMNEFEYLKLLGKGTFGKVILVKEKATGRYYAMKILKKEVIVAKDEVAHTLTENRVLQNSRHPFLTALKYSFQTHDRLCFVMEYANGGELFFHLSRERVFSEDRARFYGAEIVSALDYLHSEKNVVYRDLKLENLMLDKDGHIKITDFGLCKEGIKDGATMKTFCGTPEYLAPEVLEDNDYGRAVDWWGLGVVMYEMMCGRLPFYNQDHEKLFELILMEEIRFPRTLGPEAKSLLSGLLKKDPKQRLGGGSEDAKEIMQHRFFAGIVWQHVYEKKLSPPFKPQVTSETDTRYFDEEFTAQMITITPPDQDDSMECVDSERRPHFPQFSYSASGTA", "assay": "Induction of AKT1 degradation in human NCI-H1975 cells assessed as reduction in AKT1 protein level incubated for 24 hrs under serum free medium by Western blot analysis", "format": "cell-based"}, "[2]": {"molecular_target": "RAC-beta serine/threonine-protein kinase (Homo sapiens, UniProt P31751)", "sequence (P31751 whole entry)": "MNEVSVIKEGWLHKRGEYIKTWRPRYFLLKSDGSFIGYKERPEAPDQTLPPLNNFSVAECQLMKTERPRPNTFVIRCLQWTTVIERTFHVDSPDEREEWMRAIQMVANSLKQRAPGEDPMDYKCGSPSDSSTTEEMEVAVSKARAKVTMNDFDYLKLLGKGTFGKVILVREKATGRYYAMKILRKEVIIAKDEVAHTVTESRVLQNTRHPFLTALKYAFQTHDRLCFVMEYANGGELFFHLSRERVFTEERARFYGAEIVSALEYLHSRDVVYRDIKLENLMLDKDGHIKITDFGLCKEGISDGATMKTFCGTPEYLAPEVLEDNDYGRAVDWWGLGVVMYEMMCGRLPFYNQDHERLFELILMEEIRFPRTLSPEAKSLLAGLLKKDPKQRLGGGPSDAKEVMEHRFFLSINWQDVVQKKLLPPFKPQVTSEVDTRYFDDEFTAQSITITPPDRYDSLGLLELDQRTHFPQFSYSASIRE", "assay": "Induction of AKT2 degradation in human NCI-H1975 cells assessed as reduction in AKT2 protein level incubated for 24 hrs under serum free medium by Western blot analysis", "format": "cell-based"}, "[3]": {"molecular_target": "T1, RAC-gamma serine/threonine-protein kinase (Homo sapiens, UniProt Q9Y243)", "T1 sequence (Q9Y243 whole entry)": "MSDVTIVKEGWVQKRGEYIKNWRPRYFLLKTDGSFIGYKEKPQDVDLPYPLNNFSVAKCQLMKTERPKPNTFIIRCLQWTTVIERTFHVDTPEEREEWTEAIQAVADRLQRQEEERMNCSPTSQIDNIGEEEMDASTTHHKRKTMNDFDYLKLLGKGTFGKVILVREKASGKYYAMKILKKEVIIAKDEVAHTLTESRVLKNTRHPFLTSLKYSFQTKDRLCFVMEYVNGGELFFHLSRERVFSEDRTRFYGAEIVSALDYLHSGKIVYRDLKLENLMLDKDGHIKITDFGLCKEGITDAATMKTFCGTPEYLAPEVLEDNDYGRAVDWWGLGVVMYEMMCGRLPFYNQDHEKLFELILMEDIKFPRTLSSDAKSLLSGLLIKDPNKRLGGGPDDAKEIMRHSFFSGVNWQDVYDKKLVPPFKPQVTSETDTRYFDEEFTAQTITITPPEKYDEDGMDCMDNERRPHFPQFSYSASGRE", "assay": "Induction of AKT3 degradation in human NCI-H1975 cells assessed as reduction in AKT3 protein level incubated for 24 hrs under serum free medium by Western blot analysis", "format": "cell-based"}, "[4]": {"molecular_target": "T1, RAC-gamma serine/threonine-protein kinase", "assay": "Induction of AKT3 degradation in human NCI-H1975 cells assessed as reduction in AKT3 protein level at 1000 nM incubated for 24 hrs under serum free medium by Western blot analysis relative to control", "format": "cell-based"}, "[5]": {"molecular_target": "T1, RAC-gamma serine/threonine-protein kinase", "assay": "Induction of AKT3 degradation in human A549 cells assessed as reduction in AKT3 protein level incubated for 24 hrs by Western blot analysis", "format": "cell-based", "settings": "dose 1.6-1000 nM, DDE = dose-dependent effect"}, "[6]": {"molecular_target": "T1, RAC-gamma serine/threonine-protein kinase", "assay": "Induction of AKT3 degradation in human HCC827 cells assessed as reduction in AKT3 protein level incubated for 24 hrs by Western blot analysis", "format": "cell-based", "settings": "dose 1.6-1000 nM, DDE = dose-dependent effect"}, "[7]": {"molecular_target": "T1, RAC-gamma serine/threonine-protein kinase", "assay": "Induction of AKT3 degradation in human NCI-H1975 cells assessed as reduction in AKT3 protein level incubated for 24 hrs by Western blot analysis", "format": "cell-based", "settings": "dose 1.6-1000 nM, DDE = dose-dependent effect"}, "[8]": {"molecular_target": "T1, RAC-gamma serine/threonine-protein kinase", "assay": "Induction of AKT3 degradation in human osimertinib resistant NCI-H1975 cells assessed as reduction in AKT3 protein level incubated for 24 hrs by Western blot analysis", "format": "cell-based", "settings": "dose 1.6-1000 nM, DDE = dose-dependent effect"}, "[9]": {"molecular_target": "T1, RAC-gamma serine/threonine-protein kinase", "assay": "Induction of AKT3 degradation in human PC-9 cells assessed as reduction in AKT3 protein level incubated for 24 hrs by Western blot analysis", "format": "cell-based", "settings": "dose 1.6-1000 nM, DDE = dose-dependent effect"}, "[10]": {"molecular_target": "T1, RAC-gamma serine/threonine-protein kinase", "assay": "Induction of AKT3 degradation in human NCI-H1299 cells assessed as reduction in AKT3 protein level incubated for 24 hrs by Western blot analysis", "format": "cell-based", "settings": "dose 1.6-1000 nM, DDE = dose-dependent effect"}, "[11]": {"molecular_target": "T1, RAC-gamma serine/threonine-protein kinase", "assay": "Induction of AKT3 degradation in human NCI-H460 cells assessed as reduction in AKT3 protein level incubated for 24 hrs by Western blot analysis", "format": "cell-based", "settings": "dose 1.6-1000 nM, DDE = dose-dependent effect"}, "[12]": {"molecular_target": "T1, RAC-gamma serine/threonine-protein kinase", "assay": "Induction of AKT3 degradation in human osimertinib resistant NCI-H1975 cells assessed as increase in AKT3 degradation at 100 nM incubated for 24 hrs in presence of cycloheximide", "format": "cell-based"}, "[13]": {"molecular_target": "T1, RAC-gamma serine/threonine-protein kinase", "assay": "Induction of AKT3 degradation in human osimertinib resistant NCI-H1975 cells assessed as increase in AKT3 ubiquitination at 100 nM incubated for 24 hrs in the presence of proteosome inhibitor MG132 by immunoprecipitation analysis", "format": "cell-based"}, "[14]": {"molecular_target": "T1, RAC-gamma serine/threonine-protein kinase", "assay": "Induction of AKT3 degradation in human osimertinib resistant NCI-H1975 cells by gel fluorescence and Coomassie bright blue staining based analysis", "format": "cell-based"}, "[15]": {"molecular_target": "T1, RAC-gamma serine/threonine-protein kinase", "assay": "Binding affinity to full length N-terminal His6-sumo tagged AKT3 (unknown origin) expressed Escherichia coli BL21 (DE3) cells incubated for 2 hrs by pull-down/ LC-MS analysis"}, "[16]": {"molecular_target": "T1, RAC-gamma serine/threonine-protein kinase", "assay": "Binding affinity to AKT3 in human NCI-H1975 cells assessed as increase in thermal stability at 2 uM by thermal shift assay", "format": "cell-based"}, "[17]": {"molecular_target": "T1, RAC-gamma serine/threonine-protein kinase", "assay": "Induction of endogenous AKT3 degradation in human osimertinib resistant NCI-H1975 cells", "format": "cell-based"}, "NCI-H1975 [18]": {"test_system": "NCI-H1975", "assay": "Antiproliferative activity against human osimertinib resistant NCI-H1975 cells assessed as reduction in cell viability measured after 24 hrs by CCK-8 assay", "format": "functional, cell-based", "settings": "NCI-H1975, 24 h"}, "NCI-H1975 [19]": {"test_system": "NCI-H1975", "assay": "In vivo antitumor activity against human osimertinib resistant NCI-H1975 cells xenografted in NOD-SCID mouse assessed as tumor growth inhibition at 10 mg/kg, ip qd administered every 3 days for 5 weeks relative to control", "format": "functional, organism-based"}, "NCI-H1975 [20]": {"test_system": "NCI-H1975", "assay": "In vivo antitumor activity against human osimertinib resistant NCI-H1975 cells xenografted in NOD-SCID mouse assessed as tumor growth inhibition at 20 mg/kg, ip qd administered every 3 days for 5 weeks relative to control", "format": "functional, organism-based"}, "NCI-H1975 [21]": {"test_system": "NCI-H1975", "assay": "In vivo antitumor activity against human osimertinib resistant NCI-H1975 cells xenografted in NOD-SCID mouse assessed as tumor growth inhibition at 40 mg/kg, ip qd administered every 3 days for 5 weeks relative to control", "format": "functional, organism-based"}, "[22]": {"assay": "Toxicity in NOD-SCID mouse xenografted with human osimertinib resistant NCI-H1975 cells assessed as change in body weight at 10 to 40 mg/kg, […] administered every 3 days for 5 weeks", "format": "organism-based", "settings": "in vivo, 840 h, dose 10-40 mg/kg"}, "NCI-H1975 [23]": {"test_system": "NCI-H1975", "assay": "In vivo induction of AKT3 degradation in human osimertinib resistant cells xenografted in NOD-SCID mouse assessed as reduction in AKT3 level in tumor tissue at 10 to 40 mg/kg, ip qd administered every 3 days for 5 weeks by Western blot analysis", "format": "functional, organism-based", "settings": "dose 10-40 mg/kg"}, "PC-9": {"test_system": "PC-9", "assay": "In vivo antitumor activity against human PC-9 cells xenografted in NOD-SCID mouse assessed as tumor growth inhibition at 20 mg/kg, ip qd administered once every 2 days for 28 days relative to control", "format": "functional", "settings": "PC-9, 672 h, time 28 day, read-out: TGI"}, "[24]": {"assay": "Toxicity in NOD-SCID mouse xenografted with human PC-9 cells assessed as change in body weight at 20 mg/kg, ip qd administered once every 2 days for 28 days", "format": "organism-based", "settings": "in vivo, 672 h, time 28 day"}, "[25]": {"molecular_target": "Epidermal growth factor receptor (Homo sapiens, UniProt P00533)", "sequence (P00533 whole entry)": "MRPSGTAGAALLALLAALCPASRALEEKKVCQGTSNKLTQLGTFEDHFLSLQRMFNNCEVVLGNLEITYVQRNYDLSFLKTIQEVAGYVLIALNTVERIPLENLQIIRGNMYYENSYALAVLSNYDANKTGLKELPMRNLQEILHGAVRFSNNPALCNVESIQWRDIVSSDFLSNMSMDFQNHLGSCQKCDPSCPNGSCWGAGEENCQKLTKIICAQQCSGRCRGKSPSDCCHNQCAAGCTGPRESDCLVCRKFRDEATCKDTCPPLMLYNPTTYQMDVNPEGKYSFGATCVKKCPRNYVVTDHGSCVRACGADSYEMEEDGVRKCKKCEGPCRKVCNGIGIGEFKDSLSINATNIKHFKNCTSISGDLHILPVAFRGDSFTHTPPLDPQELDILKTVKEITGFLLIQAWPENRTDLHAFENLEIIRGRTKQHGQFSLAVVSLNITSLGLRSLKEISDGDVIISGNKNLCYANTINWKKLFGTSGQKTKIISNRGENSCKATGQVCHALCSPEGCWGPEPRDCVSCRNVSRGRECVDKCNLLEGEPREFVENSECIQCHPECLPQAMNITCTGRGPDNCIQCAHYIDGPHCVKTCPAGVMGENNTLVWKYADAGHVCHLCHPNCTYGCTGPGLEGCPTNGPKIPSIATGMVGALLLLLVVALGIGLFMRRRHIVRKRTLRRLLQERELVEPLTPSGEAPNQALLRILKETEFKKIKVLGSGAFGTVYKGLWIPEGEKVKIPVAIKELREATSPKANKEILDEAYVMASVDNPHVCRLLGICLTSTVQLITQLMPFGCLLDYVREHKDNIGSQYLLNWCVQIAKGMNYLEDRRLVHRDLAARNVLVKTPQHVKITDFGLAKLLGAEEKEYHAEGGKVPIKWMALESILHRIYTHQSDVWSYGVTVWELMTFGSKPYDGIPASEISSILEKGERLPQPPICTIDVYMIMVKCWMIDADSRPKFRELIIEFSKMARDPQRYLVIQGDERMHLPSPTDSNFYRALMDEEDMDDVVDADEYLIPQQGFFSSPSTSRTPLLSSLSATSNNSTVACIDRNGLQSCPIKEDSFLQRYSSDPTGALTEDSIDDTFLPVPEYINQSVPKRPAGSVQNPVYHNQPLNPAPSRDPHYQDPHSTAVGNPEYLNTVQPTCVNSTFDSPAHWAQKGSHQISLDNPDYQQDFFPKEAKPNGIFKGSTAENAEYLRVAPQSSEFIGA", "assay": "Inhibition of EGFR in human NCI-H1975 cells", "format": "cell-based"}}, "note": "Active and inactive are the calls of the source. The calls are words filed in the database; no cut-off is given here."}
{"smiles": "COc1cc(N2CCN(CCCCCCCCCCCCNC(=O)CC34CC5CC(CC(C5)C3)C4)CC2)ccc1Nc1ncc2c(C)cc(=O)n(-c3cccc(NC(=O)C4CC4)c3)c2n1", "values": [{"measurement": "EC50", "setting": "[1]", "value": "> 1000", "unit": "nM"}, {"measurement": "EC50", "setting": "[2]", "value": "> 1000", "unit": "nM"}, {"measurement": "EC50", "setting": "[3]", "value": 13, "unit": "nM"}, {"measurement": "Emax", "setting": "[4]", "value": 88, "unit": "%"}, {"measurement": "Activity", "setting": "[5]", "value": "Dde"}, {"measurement": "Activity", "setting": "[6]", "value": "Dde"}, {"measurement": "Activity", "setting": "[7]", "value": "Dde"}, {"measurement": "Activity", "setting": "[8]", "value": "Dde"}, {"measurement": "Activity", "setting": "[9]", "value": "Dde"}, {"measurement": "Activity", "setting": "[10]", "value": "Dde"}, {"measurement": "Activity", "setting": "[11]", "value": "Dde"}, {"measurement": "Activity", "setting": "[12]", "value": "Active"}, {"measurement": "Activity", "setting": "[13]", "value": "Active"}, {"measurement": "Activity", "setting": "[14]", "value": "Active"}, {"measurement": "Activity", "setting": "[15]", "value": "Active"}, {"measurement": "Activity", "setting": "[16]", "value": "Active"}, {"measurement": "Activity", "setting": "[17]", "value": "Active"}, {"measurement": "IC50", "setting": "NCI-H1975 [18]", "value": 7, "unit": "nM"}, {"measurement": "Activity", "setting": "NCI-H1975 [19]", "value": "Active"}, {"measurement": "Activity", "setting": "NCI-H1975 [20]", "value": "Active"}, {"measurement": "Activity", "setting": "NCI-H1975 [21]", "value": "Active"}, {"measurement": "Activity", "setting": "[22]", "value": "Non-Toxic"}, {"measurement": "Activity", "setting": "NCI-H1975 [23]", "value": "Active"}, {"measurement": "inhibition in vivo at 20 mg/kg", "setting": "PC-9", "value": 75, "unit": "%"}, {"measurement": "Activity", "setting": "[24]", "value": "Non-Toxic"}, {"measurement": "EC50", "setting": "[25]", "value": 579, "unit": "nM"}]}
